Where a name gives a salt, the structure may show the parent alone. Read-outs that look alike come from different tables or passages of the source.
What was measured:
[1] = target: T1, brain AChE (Rattus norvegicus, UniProt P37136); test: Rat brain AChE inhibition ex vivo after oral administration (Table 1); format: in vivo; details: for Potency relative to CHF 2060: inhibition of AChE after oral administration in rat; for ED50: read-out: ED50 (dose of compound to inhibit 50% of the enzyme), p.o., brain AChE, C.L. 95% given; for inhibition at 3 mg/kg: 3 mg/kg p.o.
T1 construct: from tissue; host or cells: rat brain (male SD rats), homogenate in Triton/phosphate buffer, supernatant
T1 sequence (P37136 32-614): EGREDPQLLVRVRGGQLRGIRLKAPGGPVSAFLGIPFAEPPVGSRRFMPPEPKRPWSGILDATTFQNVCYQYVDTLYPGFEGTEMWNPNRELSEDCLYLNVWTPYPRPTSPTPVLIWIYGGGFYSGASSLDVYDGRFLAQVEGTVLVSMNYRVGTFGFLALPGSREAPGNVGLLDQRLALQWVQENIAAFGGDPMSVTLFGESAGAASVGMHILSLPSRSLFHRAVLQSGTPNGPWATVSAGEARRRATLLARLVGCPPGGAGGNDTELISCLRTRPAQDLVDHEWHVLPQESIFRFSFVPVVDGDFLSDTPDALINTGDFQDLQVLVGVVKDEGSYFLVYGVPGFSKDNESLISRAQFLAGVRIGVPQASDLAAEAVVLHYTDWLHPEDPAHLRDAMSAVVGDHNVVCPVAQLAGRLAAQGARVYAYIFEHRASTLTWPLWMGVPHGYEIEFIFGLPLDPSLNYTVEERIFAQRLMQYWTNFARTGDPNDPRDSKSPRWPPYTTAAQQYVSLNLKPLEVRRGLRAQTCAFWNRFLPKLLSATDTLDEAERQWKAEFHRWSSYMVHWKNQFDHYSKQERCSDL
Method: (§1) In a preferred embodiment of the present invention, compounds CHF 2819, CHF 2957, CHF 2822 were evaluated for their enzymatic inhibition potency and selectivity of action through a series of parameters in comparison with n-heptylaminocarbonylgeneseroline hydrochloride (CHF2060).
(§2) Male SD rats weighing 150-200 g were split into groups of 8 animals each, depending on the treatment with the different substances, which were orally administered in distilled water, at a volume of 2 ml/kg. After 2 hours from the administration, the animals were sacrificed as to take their brains. Brain tissue was homogenized in a […] solution in 0.1 M phosphate buffer at pH 8. After 15 minutes centrifugation, at 4° C., the supernatant was separated and AChE was determined on it with the method described by ElIman G. L. et al. (Biochem Pharmacol. 7, 88-95, 1961). For each treatment enzyme inhibition percent was determined against controls (animals treated with distilled water only).

[2] = target: T1, brain AChE; test: Inhibition kinetics of brain AChE after oral administration (Table 2); format: in vivo; details: for selectivity index*: Brain AUC/Heart AUC; for selectivity index* / brain AUC (% inhib · xh) / inhibition at 9 mg/kg: p.o. at 1/7 LD50: CHF 2060 10, CHF 2819 1.3, CHF 2822 2.5, CHF 2957 9 mg/kg, rat; for brain AUC (% inhib · xh) / inhibition at 9 mg/kg: 1, 4, 16 h; for inhibition at 9 mg/kg: po, read-out: brain AChE maximum % inhibition
Method: as §1, §2
(§3) Another series of experiments was performed in order to determine inhibition kinetics of brain and heart AChE after 1, 4 and 16 hours from administration of each tested substance. Enzyme was assayed on tissue homogenates similarly to what above described. […] Area Under Curve (AUC) was calculated by means of the enzymatic inhibition curve, for brain and heart tissue, related to the three test times.

[3] = test system: heart AChE; test: Inhibition kinetics of heart AChE after oral administration (Table 2); format: in vivo; details: p.o. at 1/7 LD50: CHF 2060 10, CHF 2819 1.3, CHF 2822 2.5, CHF 2957 9 mg/kg; 1, 4, 16 h; rat
Method: as §1, §2, §3

[4] = target: T2, erythrocyte AChE (Homo sapiens, UniProt P22303); test: In vitro inhibition of erythrocyte AChE (Table 3); format: biochemical; details: for IC50: erythrocyte AChE, n = 4-8, read-out: AChE IC50 (μM) ± s.e.; for S.I.: selectivity index (IC50 BuChE/IC50 AChE)
T2 construct: from tissue
T2 sequence (P22303 other isoform, or with tags, fused parts or gaps): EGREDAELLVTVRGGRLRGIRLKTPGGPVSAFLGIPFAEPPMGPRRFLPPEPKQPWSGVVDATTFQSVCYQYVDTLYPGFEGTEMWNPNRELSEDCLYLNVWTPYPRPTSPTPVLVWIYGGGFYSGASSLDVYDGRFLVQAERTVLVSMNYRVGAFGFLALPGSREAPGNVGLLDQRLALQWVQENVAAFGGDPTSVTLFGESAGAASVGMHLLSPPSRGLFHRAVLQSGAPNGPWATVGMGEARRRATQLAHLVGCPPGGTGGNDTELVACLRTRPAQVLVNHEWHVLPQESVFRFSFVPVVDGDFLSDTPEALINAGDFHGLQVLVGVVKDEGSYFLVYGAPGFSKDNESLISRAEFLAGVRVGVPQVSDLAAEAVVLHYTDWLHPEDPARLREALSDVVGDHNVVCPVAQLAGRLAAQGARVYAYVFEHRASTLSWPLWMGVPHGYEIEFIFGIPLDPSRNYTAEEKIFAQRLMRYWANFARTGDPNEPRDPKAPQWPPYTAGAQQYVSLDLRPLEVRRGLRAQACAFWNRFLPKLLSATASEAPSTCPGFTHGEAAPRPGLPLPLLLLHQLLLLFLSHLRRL

[5] = target: T3, human plasma BuChE (Homo sapiens, UniProt P06276); test: In vitro inhibition of human plasma BuChE (Table 3); format: biochemical; details: for IC50: human plasma BuChE, n = 4-8, read-out: BuChE IC50 (μM) ± s.e.
T3 construct: human plasma BuChE; from tissue; host or cells: human plasma
T3 sequence (P06276 29-602): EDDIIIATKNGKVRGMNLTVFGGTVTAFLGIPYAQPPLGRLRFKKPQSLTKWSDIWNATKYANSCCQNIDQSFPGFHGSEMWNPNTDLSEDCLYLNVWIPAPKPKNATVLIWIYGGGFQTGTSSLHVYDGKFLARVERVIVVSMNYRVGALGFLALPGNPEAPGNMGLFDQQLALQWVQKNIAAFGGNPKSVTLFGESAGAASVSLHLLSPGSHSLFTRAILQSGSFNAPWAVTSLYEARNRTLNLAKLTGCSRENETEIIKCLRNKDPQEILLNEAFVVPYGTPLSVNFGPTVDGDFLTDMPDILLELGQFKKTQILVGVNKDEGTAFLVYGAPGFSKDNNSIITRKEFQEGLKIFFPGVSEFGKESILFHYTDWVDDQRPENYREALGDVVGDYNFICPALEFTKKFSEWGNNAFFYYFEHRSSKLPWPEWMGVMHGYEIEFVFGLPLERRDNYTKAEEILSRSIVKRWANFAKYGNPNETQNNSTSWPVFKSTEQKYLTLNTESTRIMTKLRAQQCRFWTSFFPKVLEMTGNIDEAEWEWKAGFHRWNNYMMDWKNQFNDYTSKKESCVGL

[6] = test system: brain acetylcholinesterase (AChE); details: European patent 0599890; cited from earlier work

SMILES | Potency relative to CHF 2060 [1] [times] | ED50 ([1]; po, rat, 2 h) [mg/kg] | Potency order (*) ([1]; rat p.o., CHF 2060 = 1) | inhibition at 3 mg/kg ([1]; rat, po, 2 h, SD rats) [%] | selectivity index* [2] | brain AUC (% inhib · xh) [2] [% inhib · xh] | inhibition at 9 mg/kg [2] [%] | Heart AChE maximum % inhibition [3] [%] | Heart AUC (% inhib · xh) [3] [% inhib · xh] | selectivity AChE versus BuChE (in words) ([4]; in vitro) | IC50 ([4]; in vitro) [µM] | S.I. [4] | IC50 [5] [µM] | also measured
Cc1cccc(NC(=O)Oc2ccc3c(c2)[C@]2(C)CCN(C)OC2N3C)c1 (stereo partly shown) [CHF 2957, n-(3-methylphenyl)aminocarbonylgeneseroline hydrochloride] | 3 | 4.1 | 3 | 21 | 4.7 | 585 | 62 | 13 | 125 | good selectivity | 4.2 ± 0.29 | 32 | 134 ± 9.7 | inhibition at 6 mg/kg ([1]; rat, po, 6 mg/kg p.o., 2 h, SD rats): 56%; inhibition at 9 mg/kg ([1]; rat, po, 9 mg/kg p.o., 2 h, SD rats): 67%
CCCCCCCNC(=O)Oc1ccc2c(c1)[C@]1(C)CCN(C)OC1N2C (stereo partly shown) [CHF 2060, n-heptylaminocarbonylgeneseroline hydrochloride, reference compound] | – | 13.2 | – | 8 | 0.6 | 252 | 20 | 41 | 450 | – | 0.85 ± 0.08 | 0.005 | 0.005 ± 0.0007 | Potency order (*) [1]: 1; inhibition at 10 mg/kg ([1]; rat, po, 10 mg/kg p.o., 2 h, SD rats): 29%; inhibition at 30 mg/kg ([1]; rat, po, 30 mg/kg p.o., 2 h, SD rats): 60%; BuChE inhibition relative to AChE (in words) [5]: definitely more potent in inhibiting BuChE, rather than AChE; brain acetylcholinesterase inhibition, duration (in words) [6]: inhibitor of brain acetylcholinesterase characterised by a long action
CNC(=O)Oc1ccc2c(c1)[C@]1(C)CCN(C)[C@@H]1N2C [Physostigmine, reference compound] | – | – | – | – | – | – | – | – | – | – | – | 0.27 | – | –
Cc1ccccc1NC(=O)Oc1ccc2c(c1)[C@]1(C)CCN(C)OC1N2C (stereo partly shown) [CHF 2822, n-(2-methylphenyl)aminocarbonylgeneseroline hydrochloride] | 7 | 1.6 | 7 | – | 3.9 | 379 | – | 9 | 96 | slightly less selective | 2.01 ± 0.08 | 0.09 | 0.18 ± 0.01 | inhibition at 0.8 mg/kg ([1]; rat, po, 0.8 mg/kg p.o., 2 h, SD rats): 25%; inhibition at 2.5 mg/kg ([1]; rat, po, 2.5 mg/kg p.o., 2 h, SD rats): 46%; inhibition at 7.5 mg/kg ([1]; rat, po, 7.5 mg/kg p.o., 2 h, SD rats): 68%
CCN(C)C(=O)Oc1cccc([C@H](C)N(C)C)c1 [SDZ-ENA 713, reference compound] | – | – | – | – | – | – | – | – | – | – | – | 0.007 | – | AChE affinity / activity (in words) ([4]; in vitro, evaluated as IC50): less active than other products
CCc1ccccc1NC(=O)Oc1ccc2c(c1)[C@]1(C)CCN(C)OC1N2C (stereo partly shown) [CHF 2819, n-(2-ethylphenyl)aminocarbonylgeneseroline hydrochloride] | 8 | 1.5 | 8 | – | 9.7 | 348 | – | 4 | 36 | favourable "in vitro" selectivity on AChE with respect to BuChE | 0.48 ± 0.06 | 115 | 55.2 ± 6.43 | inhibition at 0.4 mg/kg ([1]; rat, po, 0.4 mg/kg p.o., 2 h, SD rats): 9%; inhibition at 1.3 mg/kg ([1]; rat, po, 1.3 mg/kg p.o., 2 h, SD rats): 34%; inhibition at 3.7 mg/kg ([1]; rat, po, 3.7 mg/kg p.o., 2 h, SD rats): 55%; in vivo selectivity in inhibiting brain AChE (in words) ([2]; brain versus heart/peripheral): "in vivo" selectivity in inhibiting brain AChE; duration of action (in words) ([2]; in vivo): good duration of action; selectivity on AChE ([4]; in vitro, AChE versus BuChE, from selectivity index): 115 times

Reference: patent publication US6297237A, “Process for the preparation of aminocarbonyl derivatives of geneseroline having selective brain anticholinesterase activity” (priority 1997, dated 2001)
